Source: patent US9410152B2, “Use of microrna molecules to influence skin pigmentation” (CHANEL PARFUMS BEAUTE, priority 2011, dated 2016)
“Also recorded” adds a separate entry of the source.

What was measured:
Assay type in all cases: cell-based, human
MNT-1 cells [1] = experiment: Measurement of the relative melanin concentration (absorbance at 470 nm of protein lysates); conditions: 50 nM mimetic, day 12, relative to transfection control cel-miR-239b (miCtrl), normalized to protein
Method: (§1) 4×10^5 MNT-1 cells were seeded per well in a 6-well plate (#353046, Falcon) on day-1. On day 0, the cells were transfected with 50 nM of mimetic of the miRNAs (hsa-mir-137 # C-300604-07-005, hsa-mir-7 # C-300547-05-0005, hsa-mir-330-5p # C-301082-01-0005, negative control # NC-002000-01-05, Dharmacon), using 5 μL of Lipofectamine 2000 (#1668-019, Invitrogen). On day 1, the medium was changed. On day 3, the cells were trypsinized and seeded at 4×10^5 cells per well. On day 4, the cells were transfected again with 50 nM of mimetic of the miRNAs (see day 0). On day 5, the medium was changed. On day 7, the cells were trypsinized and seeded at 4×10^5 cells per well. On day 8, the cells were transfected with 50 nM of mimetic of the miRNAs (see day 0). On day 9, the medium was changed. On day 10, the cells were trypsinized and divided into two (from one by six wells to two by six wells). On day 12, one six-well plate was used for lysis of the RNA and the other for lysis of the proteins. As positive control of depigmentation, MNT-1 cells were incubated with 3.5 mM of kojic acid (Sigma K3125-5G) for 12 days. The cells were distributed as described and the kojic acid was renewed with the medium every 4 days. The percentage inhibition of the kojic acid is of the order of 10%.
On day 12, the cells were washed in PBS twice and lysed in 75 μL/well of a 6-well dish of lysis buffer for the RIPA proteins. The protein lysates were transferred to 1.5-ml Eppendorf tubes and vortexed lightly to homogenize the solution before putting the tube on ice or for storage at −80° C. 2 μL of protein lysate was used for measuring the absorbance of the melanin at 470 nm using the NanoVue spectrophotometer (GE Healthcare). The protein lysate of the unpigmented XB2 keratinocytes was used as calibrator sample (reference=0). To detect the relative quantity of melanin, all the samples were compared with the transfection control sample (miCtrl). The absorbance at 470 nm of the sample miCtrl was fixed at 1 as reference. In addition, the melanin absorption at 470 nm was normalized taking into account the concentration of proteins of each sample relative to miCtrl.

MNT-1 cells [2] = experiment: Overall pigmentation levels (photographs of protein lysates on day 12); conditions: 50 nM mimetic, 12 days, relative to negative control, photographs not shown
Method: as §1, with “10%. […] The XB2 keratinocytes serve as control for the unpigmented cells. […] As positive control of depigmentation, the MNT-1 cells were treated with kojic acid.” for “10%.”

mRNA TYR = experiment: qRT-PCR mRNA expression of TYR; conditions: MNT-1 cells, 50 nM mimetic, day 12, relative to cel-miR-239b, ΔΔCt
Method: 4×10^5 MNT-1 cells were seeded per well in a 6-well plate (#353046, Falcon) on day-1. On day 0, the cells were transfected with 50 nM of mimetic of the miRNAs (hsa-mir-137 # C-300604-07-005, hsa-mir-7 # C-300547-05-0005, hsa-mir-330-5p # C-301082-01-0005, negative control # NC-002000-01-05, Dharmacon), using 5 μL of Lipofectamine 2000 (#1668-019, Invitrogen). On day 1, the medium was changed. On day 3, the cells were trypsinized and seeded at 4×10^5 cells per well. On day 4, the cells were transfected again with 50 nM of mimetic of the miRNAs (see day 0). On day 5, the medium was changed. On day 7, the cells were trypsinized and seeded at 4×10^5 cells per well. On day 8, the cells were transfected with 50 nM of mimetic of the miRNAs (see day 0). On day 9, the medium was changed. On day 10, the cells were trypsinized and divided into two (from one by six wells to two by six wells). On day 12, one six-well plate was used for lysis of the RNA and the other for lysis of the proteins. As positive control of depigmentation, MNT-1 cells were incubated with 3.5 mM of kojic acid (Sigma K3125-5G) for 12 days. The cells were distributed as described and the kojic acid was renewed with the medium every 4 days. The percentage inhibition of the kojic acid is of the order of 10%. 700 μL of Qiazol lysis buffer (Qiagen) was added per well of a six-well dish after washing the cells twice with PBS. The total RNA was isolated using the miRNeasy Mini kit (Qiagen) according to the manufacturer's protocol. The total RNA was eluted in 30 μl of water without RNAse. The concentration of RNA was measured using the NanoVue spectrophotometer (GE Healthcare). 1 μg of total RNA was reverse-transcribed using the MLV RT-Enzyme system (Invitrogen) in 60 μL of reaction to produce the corresponding cDNA. Real-time PCR was performed using the IQTM SYBR® Green supermix (Biorad) (final reaction volume of 25 μL: 23 μL of Mix Master and 2 μL of cDNA). The thermocycling conditions ([…], Biorad) were as follows: 95° C. for 90 s, and 40 cycles at 95° C. for 30 s, 60° C. for 60 s and 95° C. for 10 s. The concentrations of primers and the sequences are given in Table 5 below: The relative quantity was evaluated using the ΔΔCt comparative method. Briefly, this method compares the quantity of expression of the target gene relative to an endogenous control TBP, within a sample for normalizing the expression. Within a group of samples, a suitable sample is selected as the calibrator sample ([…]). Each sample is then compared with a designated reference to give the relative expression of the target gene relative to this reference sample.

Substance	relative levels of melanin (absorbance at 470 nm) (MNT-1 cells [1])	overall pigmentation levels (MNT-1 cells [2])	levels of mRNA TYR (mRNA TYR)	overall pigmentation levels (MNT-1 cells [2]; listed as miR-7)	levels of mRNA TYR (mRNA TYR; listed as miR-7)
hsa-miR-137: mimetic of miRNA hsa-mir-137 (Dharmacon C-300604-07-005); mature sequence SEQ ID NO: 3 (UUAUUGCUUAAGAAUACGCGUAG; commercial mimic, chemistry not given here; listed as Homo sapiens)	reduction; also recorded: decrease in melanin	significant reduction	decreased; also recorded: significantly reduced	–	–
hsa-miR-7: mimetic of miRNA hsa-mir-7 (Dharmacon C-300547-05-0005); mature hsa-miR-7-5p sequence SEQ ID NO: 2 (UGGAAGACUAGUGAUUUUGUUGU; commercial mimic, chemistry not given here; listed as Homo sapiens)	slight increase	do not show a significant reduction	decreased	do not show any significant effect	appears to reduce
hsa-miR-330-5p: mimetic of miRNA hsa-mir-330-5p (Dharmacon C-301082-01-0005); mature sequence 5'-UCUCUGGGCCUGUGUCUUAGGC-3' (SEQ ID NO: 1) (UCUCUGGGCCUGUGUCUUAGGC; mimic duplex, passenger strand not given here; listed as Homo sapiens)	reduction; also recorded: decrease in melanin	significant reduction	decreased; also recorded: appears to reduce	–	–
